{"source": "patent US20030099677A1", "about": "“Cosmetic composition and method of treating skin” (Unilever Home & Personal Care USA, Division of Conopco. Inc., priority 2001, published 2003)", "assay_type_in_all_cases": "cell-based", "key": {"[1]": {"tested_on": "procollagen-I synthesis in human dermal fibroblasts", "test": "Dot blot assay for procollagen-I in dermal fibroblast conditioned medium", "conditions": "for Pro-collagen: 24 hours, relative to vehicle treated control value of 100", "experimental": "(§1) Primary human foreskin fibroblasts at passage 2 (P2) were seeded into 12-well plates at 10000 cells/cm^2 and maintained for 24 hours in an atmosphere of 5% carbon dioxide and 4% oxygen in Dulbeccos Modified Eagles Medium (DMEM) supplemented with 10% foetal calf serum. After this time the cells were washed with serum free DMEM and then incubated in fresh serum free DMEM for a further 60 hours. The fibroblast monolayers were then washed again with serum free DMEM. Test reagents and vehicle controls were added to the cells in triplicate in a final volume of 0.4 ml/well fresh serum free DMEM and incubated for a further 24 hours. This fibroblast conditioned medium was either analysed immediately or snap frozen in liquid nitrogen and stored at −70° C. for future analysis. The cells were then counted and data from the dot-blot analysis subsequently standardised to cell number.\n(§2) Samples of conditioned medium from dermal fibroblasts treated with vehicle (as a control) or test reagents were supplemented with 20 mM dithiothreitol (1:10 dilution of 200 mM stock solution) and 0.1% sodium dodecylsulphate (1:100 dilution of 10% stock solution), mixed well and then incubated at 75° C. for 2 minutes. […]\n(§3) Following this the Immobilon strips were again washed with TBS/Tween 20 (3×5 minutes) before being allowed to dry in air at room temperature. […] Dot intensity was assessed by computer-assisted image analysis using the quantification tools in ImageQuant™, standardised to cell number and the effects of various test reagents on decorin and procollagen-I synthesis were determined relative to a vehicle treated control value of 100 arbitrary units.\n(§4) Tables 1 indicates the effects of trans-7-octadecanoic acid on procollagen-I and decorin synthesis in human dermal fibroblasts, and the amounts in which it was applied. In order to normalize the results the effects of the test substance was determined relative to a vehicle treated control value of 100 arbitrary units."}, "[2]": {"tested_on": "Human foreskin keratinocytes", "test": "Pico Green DNA assay of keratinocyte extracts (proliferation)", "experimental": "(§5) […] The cells were grown for 3 days prior to treatment. The treatment vehicle was DMSO. After 4 days of treatment, the cells were harvested and washed three times with 100 μl phosphate buffered saline (PBS). The cells were then extracted in 1% Triton X100, 50 mM Tris pH 8.0, 0.02 mM Leupeptin, 0.02 mM Pepstatin. 60 μl/well extract was then assayed for DNA concentration (ng/well), Pico Green DNA assay, Molecular Probes."}, "[3]": {"tested_on": "decorin synthesis in human dermal fibroblasts", "test": "Dot blot assay for decorin in dermal fibroblast conditioned medium", "conditions": "for Decorin: 24 hours, relative to vehicle treated control value of 100", "experimental": "as §1, §2, §3, §4"}, "[4]": {"tested_on": "Human foreskin keratinocytes", "test": "Keratinocyte cornified envelope assay (marker of keratinocyte differentiation)", "experimental": "Method to Assess Effect of Active on Keratinocyte Cornified Envelope Production—a Marker of Keratinocyte Differentiation\nas §5\nThe cells were then washed in 200 μl PBS, and then 100 μl of 2% SDS, 20 mM DTT was added to each well. The plates were then sealed with a Titertek plate sealer (ICN) and incubated at 60° C. over night in an air-tight damp environment (i.e. a sealed sandwich box lined with damp paper). The extract was then filtered through a PVDF transfer membrane (Bio-rad) under gravity using Dot-Blot apparatus (Bio-rad). The membrane was then washed in distilled water prior to silver staining (Bio-rad Silver Stain kit). The stained dot blot membrane was then analyzed using Phoretix array software (Phoretix International)."}, "[5]": {"tested_on": "Transglutaminase activity in pigskin epidermis", "test": "In situ TGase assay in pig skin organ culture", "conditions": "for Transglutaminase activity (fluorescence-background) Mean: pig organ culture, 48 hours", "experimental": "Porcine back skin was prepared by carefully removing subcutaneous fat and muscle resulting in a skin sample 3-4 mm thick. Hair was clipped and the skin was washed in water, removing any residual blood or dirt. The skin sample was cut into 7 cm×7 cm squares and incubated in 5% Dettol (sterile) for 1 hr at room temp (RT). It was then incubated in DMEM containing ABAM (5 mL/500 mL of medium) for 1 hr. Hydrocortisone 21-hemisuccinate (100îg/mL, sterile filtered) was added to DMEM+ABAM. Tripods and meshes were set up on petri dishes containing 3 ml of media (DMEM/ABAM/hydrocortisone), creating a negative meniscus. Punch biopsies were taken from the skin and placed onto the mesh (4 per dish), and then incubated for 24 hrs at 37° C., 5% CO2 before being treated. Media was changed daily.\nA stock solution of 10 mM Biotinylated monodansylcadaverine in 0.013M HCl was, and stored at −20° C. From the stock solution substrate buffer was prepared: 0.1 mM biotinylated monodansylcadaverine, 5 mM CaCl2 in 100 mM Tris HCl. 5 mM CaCl2 was replaced with 200 mM EDTA for a […] control.\nPig skin biopsies were snap frozen in liquid nitrogen and stored at −20° C. Sections were cut (5-8 microns thick, Brights cryostat) and air-dried for 10 minutes at room temperature (RT). The sections were incubated for 30 minutes at RT with 1% BSA in 0.1M Tris/HC1, pH 8.4 then incubated in substrate buffer for 2 hours at RT. The slides were washed to stop the reaction in 25 mM EDTA in PBS for 5 minutes, followed by two washes in PBS. The slides were then incubated in Alexa fluor 488 streptavidin (1:250) for 30 minutes at RT, then washed in PBS as before. The slides were counterstained with 10îg/ml propidium iodide for 10 seconds, then washed in water and mounted in prolong antifade solution. Sections were visualised using a Microscope (Leica, Leitz DMRB, Leitz ploemopak filter block L3, Milton Keynes, Bucks. UK) and images were captured using Image Grabber PC Software (Neotech Ltd. Eastleigh, Hampshire, UK). […]"}, "[6]": {"conditions": "human dermal fibroblasts, statement in words"}, "[7]": {"conditions": "Table 3, 1 μM, grown in 1.2 mM calcium"}, "[8]": {"conditions": "Table 4, 0.001 μM, low calcium, P = 0.002"}}}
{"smiles": "CCCCCCCCCC/C=C/CCCCCC(=O)O", "note": "[Trans-7-octadecanoic acid, trans-7-octadecanoic acid]", "values": [{"measurement": "Pro-collagen", "setting": "[1]; 0.1 μM", "value": 194.96, "unit": "arbitrary units"}, {"measurement": "Pro-collagen", "setting": "[1]; 1.0 μM", "value": 126.63, "unit": "arbitrary units"}, {"measurement": "effect on synthesis of procollagen-I as compared to the control", "setting": "[1]; [6]", "value": "significantly up-regulates"}, {"measurement": "DNA Mean", "setting": "[2]; Table 2, 1 μM, grown in 1.2 mM calcium, p < 0.05", "value": 9, "unit": "ng/well"}, {"measurement": "DNA Mean", "setting": "[2]; Table 2, 10 μM, grown in 1.2 mM calcium, p < 0.05", "value": 7, "unit": "ng/well"}, {"measurement": "DNA Mean", "setting": "[2]; Table 2, 50 μM, grown in 1.2 mM calcium", "value": 6, "unit": "ng/well"}, {"measurement": "DNA Mean", "setting": "[2]; Table 2, 100 μM, grown in 1.2 mM calcium", "value": 4, "unit": "ng/well"}, {"measurement": "DNA Mean", "setting": "[2]; Table 3, 0.1 μM, grown in 1.2 mM calcium, P < 0.05", "value": 5, "unit": "ng/well"}, {"measurement": "DNA Mean", "setting": "[2]; [7]", "value": 6, "unit": "ng/well"}, {"measurement": "DNA % control", "setting": "[2]; Table 4, 0.001 μM, low calcium", "value": 100, "unit": "% control"}, {"measurement": "DNA Mean", "setting": "[2]; Table 4, 0.001 μM, low calcium", "value": 1.41, "unit": "ng/well"}, {"measurement": "DNA % control", "setting": "[2]; Table 4, 0.01 μM, low calcium", "value": 100, "unit": "% control"}, {"measurement": "DNA Mean", "setting": "[2]; Table 4, 0.01 μM, low calcium", "value": 1.42, "unit": "ng/well"}, {"measurement": "effect on keratinocyte proliferation", "setting": "[2]; in high calcium, statement in words", "value": "proliferation enhancer"}, {"measurement": "Decorin", "setting": "[3]; 1.0 μM", "value": "163.10 % of vehicle control"}, {"measurement": "Decorin", "setting": "[3]; 10.0 μM", "value": "134.04 % of vehicle control"}, {"measurement": "effect on synthesis of decorin as compared to the control", "setting": "[3]; [6]", "value": "significantly up-regulates"}, {"measurement": "Cornified Envelope Assay Mean", "setting": "[4]; Table 2, 1 μM, grown in 1.2 mM calcium, 4 days of treatment", "value": 57900}, {"measurement": "Cornified Envelope Assay Mean", "setting": "[4]; Table 2, 10 μM, grown in 1.2 mM calcium, 4 days of treatment", "value": 54689}, {"measurement": "Cornified Envelope Assay Mean", "setting": "[4]; Table 2, 50 μM, grown in 1.2 mM calcium, 4 days of treatment", "value": 49272}, {"measurement": "Cornified Envelope Assay Mean", "setting": "[4]; Table 2, 100 μM, grown in 1.2 mM calcium, 4 days of treatment", "value": 42110}, {"measurement": "Cornified Envelope Assay Mean", "setting": "[4]; Table 3, 0.1 μM, grown in 1.2 mM calcium", "value": 37930}, {"measurement": "Cornified Envelope Assay Mean", "setting": "[4]; [7]", "value": 47773}, {"measurement": "Cornified Envelope Assay Mean", "setting": "[4]; [8]", "value": 39627}, {"measurement": "Cornified Envelope assay % control", "setting": "[4]; [8]", "value": 212, "unit": "% control"}, {"measurement": "Cornified Envelope Assay Mean", "setting": "[4]; Table 4, 0.01 μM, low calcium", "value": 22221}, {"measurement": "Cornified Envelope assay % control", "setting": "[4]; Table 4, 0.01 μM, low calcium", "value": 119, "unit": "% control"}, {"measurement": "effect on cornified envelope production", "setting": "[4]; in low calcium, at low concentrations, statement in words", "value": "induces cornified envelope production"}, {"measurement": "Transglutaminase activity (fluorescence-background) Mean", "setting": "[5]; 0.1 μM", "value": 1908}, {"measurement": "effect on transglutamine cross linking activity", "setting": "[5]; 1 μM, intact pigskin epidermis, statement in words", "value": "induces transglutamine cross linking activity"}, {"measurement": "Transglutaminase activity (fluorescence-background) Mean", "setting": "[5]; 1 μM", "value": 2268}]}
